One experiment has as its target T1, ULK1 kinase (Homo sapiens, UniProt O75385, E37A/K38A).
T1 construct: (residues 1-283; ID NO: 1); purchased Beryllium
T1 sequence (O75385 1-283 E37A/K38A): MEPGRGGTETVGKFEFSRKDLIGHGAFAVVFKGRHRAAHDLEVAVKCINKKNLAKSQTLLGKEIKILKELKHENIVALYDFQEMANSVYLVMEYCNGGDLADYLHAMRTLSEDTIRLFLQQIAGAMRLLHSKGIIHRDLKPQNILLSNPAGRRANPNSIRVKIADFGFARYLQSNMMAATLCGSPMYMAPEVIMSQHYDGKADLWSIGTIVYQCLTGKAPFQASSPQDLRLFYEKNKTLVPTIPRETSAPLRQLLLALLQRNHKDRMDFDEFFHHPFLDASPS
In words: Biochemical assay for ULK1 (coupled pyruvate kinase/lactate dehydrogenase assay). The note with it: 1 mM ATP, 0.1 nM ULK1; read-out: ULK1 (inhibition of biochemical activity), IC50. The gist of the method:
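IC50 values were fitted to percent inhibition, normalised with no-compound and known-inhibitor controls, using rates from 2–3 h of a 6 h read at 30 °C. ADP was coupled through pyruvate kinase/lactate dehydrogenase to NADH loss at 340 nm.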

In experiment [1] the test system is ULK kinase substrate ATG13 (pS318-ATG13) in MiaPaCa-2 cells. In words: pATG13 levels of mutant KRas MiaPaCa-2 cells after treatment with ULK inhibitors in combination with trametinib (ELISA). The class given is cell-based, human. The method in brief: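 MiaPaCa-2 cells grown overnight, then dosed with test compound titration plus trametinib (final 250 nM) or DMSO, overnight at 37° C. Lysate pS318-ATG13 measured by sandwich ELISA (total ATG13 capture, biotinylated pS318 detection, HRP/TMB, A450 minus A540); % phosphorylation vs control wells fitted to IC50.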
Background: ELISA stands for enzyme-linked immunosorbent assay.

For orientation: IC50 means the concentration at which inhibition is half-maximal. For `CC/C(Nc1cnn([C@H]2CCOC2)c1)=C1/C(=O)Nc2ccc(C(=O)NCC(F)(F)F)cc21` [Example 104], the IC50 at ULK1 kinase is at most 10 nM; in experiment [1], at most 100 nM.
The like results for `CC/C(Nc1cnn([C@@H]2CCOC2)c1)=C1/C(=O)Nc2ccc(C(=O)NCC(F)(F)F)cc21` [Example 105] were, in that order, at most 10 nM and at most 100 nM.
The like results for `CC/C(Nc1cnn(C2CCOCC2)c1)=C1/C(=O)Nc2ccc(C(=O)NCC(F)(F)F)cc21` [Example 106] were, in that order, at most 10 nM and at most 100 nM.
Consider `CC/C(Nc1cnn(CC)c1)=C1/C(=O)Nc2ccc(C(=O)NCC(F)(F)F)cc21` [Example 107], for which the values for the IC50 (at ULK1 kinase; in experiment [1]) were at most 10 nM and at most 100 nM, respectively.
The like results for `CC/C(Nc1cn[nH]c1)=C1/C(=O)Nc2ccc(C(=O)NCC(F)(F)F)cc21` [Example 108] were, in that order, 10 to 100 nM and 100 to 300 nM.
The like results for `CC/C(Nc1cnn(C(C)C)c1)=C1/C(=O)Nc2ccc(C(=O)NCC(F)F)cc21` [Example 112] were, in that order, 10 to 100 nM and at most 100 nM.
For `CC/C(Nc1cnn(C(F)(F)F)c1)=C1/C(=O)Nc2ccc(C(=O)NCC(F)(F)F)cc21` [Example 113], the IC50 at ULK1 kinase is 10 to 100 nM; in experiment [1] it was at most 100 nM.
The like results for `CC/C(Nc1cnn(C(F)F)c1)=C1/C(=O)Nc2ccc(C(=O)NCC(F)(F)F)cc21` [Example 114] were, in that order, 10 to 100 nM and at most 100 nM.
Take `CC/C(Nc1cnn(C2CC2)c1)=C1/C(=O)Nc2ccc(C(=O)NCC(F)(F)F)cc21` [Example 116]: the IC50 on ULK1 kinase is 10 to 100 nM; in experiment [1], at most 100 nM.
In the same order, the values of `CC/C(Nc1cnn(C2CCC2)c1)=C1/C(=O)Nc2ccc(C(=O)NCC(F)(F)F)cc21` [Example 117] are at most 10 nM and at most 100 nM.
Regarding `CC/C(Nc1cnn(C2COC2)c1)=C1/C(=O)Nc2ccc(C(=O)NCC(F)(F)F)cc21` [Example 118], the IC50 at ULK1 kinase was at most 10 nM; in experiment [1], at most 100 nM.
The like results for `CC/C(Nc1cnn(C(C)C)c1)=C1/C(=O)Nc2ccc(C(=O)N[C@H](C)C(F)(F)F)cc21` [Example 119] were, in that order, at most 10 nM and at most 100 nM.
In the same order, the values of `CC/C(Nc1cn(C(C)C)nn1)=C1/C(=O)Nc2ccc(C(=O)NCC(F)(F)F)cc21` [Example 122] are 10 to 100 nM and 100 to 300 nM.
In the case of `CC/C(Nc1cnn(C2CCN(C(C)C)CC2)c1)=C1/C(=O)Nc2ccc(C(C)=O)cc21` [Example 123], the IC50 on ULK1 kinase was 100 to 500 nM; in experiment [1], at most 100 nM.
In the same order, the values of `CC/C(Nc1cccnc1)=C1/C(=O)Nc2ccc(C(=O)NCC(F)(F)F)cc21` [Example 124] are 100 to 500 nM and 300 to 600 nM.
The like results for `CC/C(Nc1cnn(C(C)C)c1)=C1/C(=O)Nc2ccc(C(=O)N(C)CC(F)(F)F)cc21` [Example 125] were, in that order, 10 to 100 nM and 100 to 300 nM.
In the same order, the values of `CC/C(Nc1cnn(C(C)C)c1)=C1/C(=O)Nc2ccc(C(=O)NCCOC)cc21` [Example 126] are 10 to 100 nM and 100 to 300 nM.
As for `CC/C(Nc1cnn(C(C)C)c1)=C1/C(=O)Nc2ccc(C(=O)NCCC#N)cc21` [Example 127], the IC50 on ULK1 kinase is 10 to 100 nM; in experiment [1], 100 to 300 nM.
For the molecule `CC/C(Nc1cnn(C(C)C)c1)=C1/C(=O)Nc2ccc(C(=O)NC[C@@H](C)OC)cc21` [Example 128], the results for the IC50 (on ULK1 kinase; in experiment [1]) were 10 to 100 nM and 300 to 600 nM, respectively.
The like results for `CC/C(Nc1cnn(C(C)C)c1)=C1/C(=O)Nc2ccc(C(=O)NCC(C)C)cc21` [Example 130] were, in that order, at most 10 nM and at most 100 nM.
The like results for `CC/C(Nc1cnn(C(C)C)c1)=C1/C(=O)Nc2ccc(C(=O)NCC3CC(F)(F)C3)cc21` [Example 134] were, in that order, at most 10 nM and at most 100 nM.
In the same order, the values of `CC/C(Nc1cnn(C(C)C)c1)=C1/C(=O)Nc2ccc(C(=O)NCC(C)(C)F)cc21` [Example 135] are at most 10 nM and at most 100 nM.
Take `CC/C(Nc1cnn(C(C)C)c1)=C1/C(=O)Nc2ccc(C(=O)NCCOC(F)(F)F)cc21` [Example 136]: the IC50 on ULK1 kinase is at most 10 nM; in experiment [1] it was at most 100 nM.
The like results for `CC/C(Nc1cnn(C(C)C)c1)=C1/C(=O)Nc2ccc(C(=O)NCC3CCC(C)(C)O3)cc21` (stereo not drawn) [Example 137] were, in that order, at most 10 nM and 100 to 300 nM.
In the same order, the values of `CC/C(Nc1cnn(C(C)C)c1)=C1/C(=O)Nc2ccc(C(=O)NCC3CCC4(CCC4)O3)cc21` (stereo not drawn) [Example 138] are 10 to 100 nM and 300 to 600 nM.
The like results for `CC/C(Nc1cnn(C(C)C)c1)=C1/C(=O)Nc2ccc(C(=O)NCC3(C(F)(F)F)CC3)cc21` [Example 140] were, in that order, at most 10 nM and at most 100 nM.
As to `CC/C(Nc1ccc2nn(C(C)C)cc2c1)=C1/C(=O)Nc2ccc(C(=O)NCC(F)(F)F)cc21` [Example 142], the IC50 at ULK1 kinase fell in the range of 10 to 100 nM; in experiment [1], 100 to 300 nM.
In the same order, the values of `CC/C(Nc1cnn(C2CC(F)(F)C2)c1)=C1/C(=O)Nc2ccc(C(=O)NCC(F)(F)F)cc21` [Example 144] are at most 10 nM and at most 100 nM.
With `CC/C(Nc1ccccn1)=C1/C(=O)Nc2ccc(C(=O)NCC(F)(F)F)cc21` [Example 145], the IC50 at ULK1 kinase lay in the range of 10 to 100 nM; in experiment [1], 100 to 300 nM.
The like results for `CC/C(Nc1cnn(C(F)F)c1)=C1/C(=O)Nc2ccc(C(=O)NCC(C)C)cc21` [Example 147] were, in that order, 10 to 100 nM and at most 100 nM.
The like results for `CC/C(Nc1cnn(C(C)C)c1)=C1/C(=O)Nc2ccc(C(=O)NCC(C)(C)OC)cc21` [Example 148] were, in that order, 10 to 100 nM and 100 to 300 nM.
The like results for `CC/C(Nc1cc(C(F)(F)F)ccn1)=C1/C(=O)Nc2ccc(C(=O)NCC(F)(F)F)cc21` [Example 149] were, in that order, 10 to 100 nM and 100 to 300 nM.
Consider `CC/C(Nc1cnn(C(C)C)c1)=C1/C(=O)Nc2ccc(C(=O)NCC3(F)CC3)cc21` [Example 152], for which the IC50 at ULK1 kinase was at most 10 nM; in experiment [1] it was at most 100 nM.
The like results for `CC/C(Nc1cnn(CC)c1)=C1/C(=O)Nc2ccc(C(=O)NCC3(F)CC3)cc21` [Example 153] were, in that order, at most 10 nM and at most 100 nM.
For `CC/C(Nc1cnn(C)c1)=C1/C(=O)Nc2ccc(C(=O)NCC3(F)CC3)cc21` [Example 154], the IC50 at ULK1 kinase is at most 10 nM; in experiment [1], at most 100 nM.
In the same order, the values of `CC/C(Nc1cnn(C(C)C)c1)=C1/C(=O)Nc2ccc(C(=O)NCC3(C#N)CC3)cc21` [Example 156] are at most 10 nM and at most 100 nM.
In the same order, the values of `CC/C(Nc1cnn(CC(C)OC)c1)=C1/C(=O)Nc2ccc(C(=O)NCC(F)(F)F)cc21` (stereo not drawn) [Example 157] are 10 to 100 nM and at most 100 nM.
In the same order, the values of `CC/C(Nc1cnn(CC(C)OC)c1)=C1/C(=O)Nc2ccc(C(=O)NCC(F)(F)F)cc21` (stereo not drawn) [Example 158] are 10 to 100 nM and 100 to 300 nM.
As for `CC/C(Nc1cnn(C(C)CC)c1)=C1/C(=O)Nc2ccc(C(=O)NCC(F)(F)F)cc21` (stereo not drawn) [Example 159], the IC50 on ULK1 kinase was 10 to 100 nM; in experiment [1], at most 100 nM.
The like results for `CC/C(Nc1cnn(CC(F)(F)F)c1)=C1/C(=O)Nc2ccc(C(=O)NCC(C)(C)F)cc21` [Example 160] were, in that order, at most 10 nM and at most 100 nM.
For `CC/C(Nc1cnn(CC(F)F)c1)=C1/C(=O)Nc2ccc(C(=O)NCC(C)(C)F)cc21` [Example 161], the IC50 at ULK1 kinase is at most 10 nM; in experiment [1] it was at most 100 nM.
In the same order, the values of `CC/C(Nc1cnn(C(C)C)c1)=C1/C(=O)Nc2ccc(C(=O)NCCC(F)(F)F)cc21` [Example 166] are at most 10 nM and at most 100 nM.
As to `CC/C(Nc1cnn(C(C)C)c1)=C1/C(=O)Nc2ccc(C(=O)NCC3(C)CCOC3)cc21` (stereo not drawn) [Example 168], the IC50 at ULK1 kinase lay within 10 to 100 nM; in experiment [1] it was 100 to 300 nM.
In the same order, the values of `CC/C(Nc1cnn(C(F)(F)F)c1)=C1/C(=O)Nc2ccc(C(=O)NCC(C)C)cc21` [Example 169] are 10 to 100 nM and 100 to 300 nM.
The like results for `CC/C(Nc1cnn(C2CCOCC2)c1)=C1/C(=O)Nc2ccc(C(=O)NCC(C)(C)F)cc21` [Example 173] were, in that order, at most 10 nM and at most 100 nM.

For the origin of these results see patent US20240150368A1, “ULK INHIBITORS AND METHODS OF USE THEREOF” (Deciphera Pharmaceuticals, LLC, priority 2022, published 2024).
